Results reported in US20110077248A1, “IMIDAZOPYRIDINE AND RELATED ANALOGS AS SIRTUIN MODULATORS” (Sirtris Pharmaceuticals, Inc., priority 2008, published 2011).

Target: T1, SIRT1 (Homo sapiens, UniProt Q96EB6)
T1 construct: His-tag (N); made in house; host or cells: E. coli BL21(DE3), T7-promoter vector
T1 sequence (Q96EB6 1-747): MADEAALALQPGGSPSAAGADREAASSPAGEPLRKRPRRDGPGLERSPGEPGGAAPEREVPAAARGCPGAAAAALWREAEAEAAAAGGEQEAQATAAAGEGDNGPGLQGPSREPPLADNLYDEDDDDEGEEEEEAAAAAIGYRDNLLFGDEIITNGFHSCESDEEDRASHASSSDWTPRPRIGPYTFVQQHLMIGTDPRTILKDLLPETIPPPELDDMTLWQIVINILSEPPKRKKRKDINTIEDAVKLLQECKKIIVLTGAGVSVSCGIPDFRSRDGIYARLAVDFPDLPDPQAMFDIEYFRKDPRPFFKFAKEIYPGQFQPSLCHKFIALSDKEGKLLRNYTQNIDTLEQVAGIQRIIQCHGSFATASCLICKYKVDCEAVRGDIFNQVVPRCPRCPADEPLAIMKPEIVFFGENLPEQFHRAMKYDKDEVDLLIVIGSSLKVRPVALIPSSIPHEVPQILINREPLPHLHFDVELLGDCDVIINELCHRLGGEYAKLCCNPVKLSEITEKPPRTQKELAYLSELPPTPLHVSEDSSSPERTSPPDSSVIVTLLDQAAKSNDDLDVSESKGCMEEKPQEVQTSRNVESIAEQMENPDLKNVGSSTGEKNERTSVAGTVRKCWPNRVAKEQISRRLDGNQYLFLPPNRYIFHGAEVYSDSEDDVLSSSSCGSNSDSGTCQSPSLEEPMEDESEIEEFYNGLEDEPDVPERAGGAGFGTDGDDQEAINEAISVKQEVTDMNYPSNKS
Experiment: Mass spectrometry based assay for modulators of SIRT1 activity (deacetylation of p53-based acetylated peptide)
Assay type: biochemical
Conditions: for EC1.5: concentration of test compound that results in 150% activation of SIRT1, 0.5 μM peptide substrate, 120 μM βNAD+, 10 nM SIRT1, 25 min, 25° C.; for Emax: percent maximum fold activation of SIRT1
From the text: A mass spectrometry based assay was used to identify modulators of SIRT1 activity. The mass spectrometry based assay utilizes a peptide having 20 amino acid residues as follows: Ac-EE-K(biotin)-GQSTSSHSK(Ac)NleSTEG-K(5TMRi)-EE-NH2 (SEQ ID NO: 1) wherein K(Ac) is an acetylated lysine residue and Nle is a norleucine. The peptide is labeled with the fluorophore 5TMR (excitation 540 nm/emission 580 nm) at the C-terminus. The sequence of the peptide substrate is based on p53 with several modifications. In addition, the methionine residue naturally present in the sequence was replaced with the norleucine because the methionine may be susceptible to oxidation during synthesis and purification.
The mass spectrometry assay is conducted as follows: 0.5 μM peptide substrate and 120 μM βNAD+ is incubated with 10 nM SIRT1 for 25 minutes at 25° C. in a reaction buffer (50 mM Tris-acetate pH 8, 137 mM NaCl, 2.7 mM KCl, 1 mM MgCl2, 5 mM DTT, 0.05% BSA). Test compounds may be added to the reaction as described above. The SirT1 gene is cloned into a T7-promoter containing vector and transformed into BL21(DE3). After the 25 minute incubation with SIRT1, 10 μL of 10% formic acid is added to stop the reaction. Reactions are sealed and frozen for later mass spec analysis. Determination of the mass of the substrate peptide allows for precise determination of the degree of acetylation (i.e. starting material) as compared to deacetylated peptide (product).
A control for inhibition of sirtuin activity is conducted by adding 1 μL of 500 mM nicotinamide as a negative control at the start of the reaction (e.g., permits determination of maximum sirtuin inhibition). A control for activation of sirtuin activity is conducted using 10 nM of sirtuin protein, with 1 μL of DMSO in place of compound, to determinine the amount of deacetylation of the substrate at a given timepoint within the linear range of the assay. This timepoint is the same as that used for test compounds and, within the linear range, the endpoint represents a change in velocity.
For the above assay, SIRT1 protein was expressed and purified as follows. The SirT1 gene was cloned into a T7-promoter containing vector and transformed into BL21(DE3). The protein was expressed by induction with 1 mM IPTG as an N-terminal His-tag fusion protein at 18° C. overnight and harvested at 30,000×g. Cells were lysed with lysozyme in lysis buffer (50 mM Tris-HCl, 2 mM Tris[2-carboxyethyl]phosphine (TCEP), 10 μM ZnCl2, 200 mM NaCl) and further treated with sonication for 10 min for complete lysis. The protein was purified over a Ni-NTA column (Amersham) and fractions containing pure protein were pooled, concentrated and run over a sizing column (Sephadex S200 26/60 global). The peak containing soluble protein was collected and run on an Ion-exchange column (MonoQ). Gradient elution (200 mM-500 mM NaCl) yielded pure protein. This protein was concentrated and dialyzed against dialysis buffer (20 mM Tris-HCl, 2 mM TCEP) overnight. The protein was aliquoted and frozen at −80° C. until further use.
Sirtuin modulating compounds that activated SIRT1 were identified using the assay described above and are shown below in Table 1. The EC1.5 values represent the concentration of test compounds that result in 150% activation of SIRT1. The EC1.5 values for the activating compounds are represented by A (EC1.5<1.0 uM), B (EC1.5 1-25 uM), C (EC1.5>25 uM). The percent maximum fold activation is represented by A (Fold activation >200%) or B (Fold Activation <200%). “NT” indicates the compound was not tested in a particular assay.

## Cc1cc(-c2nc3c(C(=O)Nc4cccc(CN5CCOCC5)n4)cccn3n2)ccn1 [Compound 217]
  EC1.5: B (EC1.5 1-25 uM)
  Emax: > 200%

## O=C(Nc1cccc(CN2CCOCC2)n1)c1cccn2cc(-c3cccc(F)c3F)nc12 [Compound 232]
  EC1.5: B (EC1.5 1-25 uM)
  Emax: < 200%

## Cc1cnc(NC(=O)c2nccn3cc(-c4ccc(F)cc4C(F)(F)F)nc23)s1 [Compound 190]
  EC1.5: A (EC1.5<1.0 uM)
  Emax: > 200%

## O=C(Nc1ccccc1)c1cccn2cc(-c3cccc(OC(F)(F)F)c3)nc12 [Compound 116]
  EC1.5: C (EC1.5>25 uM)
  Emax: < 200%

## O=C(Nc1ccccn1)c1cccn2nc(-c3ccccc3OC(F)F)nc12 [Compound 226]
  EC1.5: B (EC1.5 1-25 uM)
  Emax: > 200%

## Cc1ncccc1-c1nc2c(C(=O)Nc3nc(CN4CCOCC4)cs3)cccn2n1 [Compound 241]
  EC1.5: B (EC1.5 1-25 uM)
  Emax: < 200%

## O=C(Nc1cccnn1)c1nccn2cc(-c3ccc(F)cc3C(F)(F)F)nc12 [Compound 191]
  EC1.5: B (EC1.5 1-25 uM)
  Emax: > 200%

## Cc1ccc(-c2cn3ccnc(C(=O)Nc4cccc(CN5CCOCC5)n4)c3n2)cn1 [Compound 165]
  EC1.5: B (EC1.5 1-25 uM)
  Emax: < 200%

## O=C(Nc1nccs1)c1cccn2cc(-c3ccc(N4CCOCC4)cc3)nc12 [Compound 183]
  EC1.5: C (EC1.5>25 uM)
  Emax: < 200%

## Cc1ncccc1-c1nc2c(C(=O)Nc3ccccn3)cccn2n1 [Compound 240]
  EC1.5: C (EC1.5>25 uM)
  Emax: < 200%

## O=C(Nc1nccs1)c1nccn2cc(-c3cccc(C(F)(F)F)c3)nc12 [Compound 138, N-(thiazol-2-yl)-2-(3-(trifluoromethyl)phenyl)imidazo[1,2-a]pyrazine-8-carboxamide]
  EC1.5: C (EC1.5>25 uM)
  Emax: < 200%

## O=C(Nc1cccn2cc(-c3cccc(-c4ccccc4)c3)nc12)c1cnccn1 [Compound 123, N-(2-(biphenyl-3-yl)imidazo[1,2-a]pyridin-8-yl)pyrazine-2-carboxamide]
  EC1.5: C (EC1.5>25 uM)
  Emax: < 200%

## O=C(Nc1ccccn1)c1cccn2nc(-c3ccccc3OC(F)(F)F)nc12 [Compound 228]
  EC1.5: B (EC1.5 1-25 uM)
  Emax: > 200%

## O=C(Nc1ccccn1)c1cccn2nc(-c3cccc(N4CCOCC4)c3)nc12 [Compound 182]
  EC1.5: B (EC1.5 1-25 uM)
  Emax: < 200%

## O=C(Nc1nc(CN2CCOCC2)cs1)c1cccn2cc(-c3ccc(F)c(Cl)c3)nc12 [Compound 235]
  EC1.5: A (EC1.5<1.0 uM)
  Emax: > 200%

## O=C(Nc1ccccn1)c1cccn2cc(-c3cccc(CN4CCOCC4)c3)nc12 [Compound 255]
  EC1.5: A (EC1.5<1.0 uM)
  Emax: > 200%

## O=C(Nc1cnccn1)c1cccn2cc(-c3ccccc3)nc12 [Compound 109]
  EC1.5: B (EC1.5 1-25 uM)
  Emax: < 200%

## O=C(Nc1cccc(OCC(O)CO)c1)c1cccn2cc(-c3cccc(C(F)(F)F)c3)nc12 (centres unmarked) [Compound 137, N-(3-(2,3-dihydroxypropoxy)phenyl)-2-(3-(trifluoromethyl)phenyl)imidazo[1,2-a]pyridine-8-carboxamide]
  EC1.5: A (EC1.5<1.0 uM)
  Emax: > 200%

## O=C(NC1CCCC1)c1cccn2cc(-c3cccc(OC(F)(F)F)c3)nc12 [Compound 114]
  EC1.5: C (EC1.5>25 uM)
  Emax: < 200%

## Cc1ncccc1-c1nc2c(C(=O)Nc3nccs3)cccn2n1 [Compound 239, 2-(2-methylpyridin-3-yl)-N-(thiazol-2-yl)-[1,2,4]triazolo[1,5-a]pyridine-8-carboxamide]
  EC1.5: C (EC1.5>25 uM)
  Emax: < 200%

## O=C(Nc1cccn2cc(-c3cccc(C(F)(F)F)c3)nc12)c1cnccn1 [Compound 111]
  EC1.5: B (EC1.5 1-25 uM)
  Emax: < 200%

## O=C(Nc1nccs1)c1nccn2cc(-c3ccc(N4CCCC4)cc3)nc12 [Compound 168]
  EC1.5: C (EC1.5>25 uM)
  Emax: < 200%

## O=C(Nc1ccccn1)c1cccn2cc(-c3ccc(F)cc3)nc12 [Compound 157]
  EC1.5: B (EC1.5 1-25 uM)
  Emax: < 200%

## O=C(Nc1nccs1)c1cccn2cc(-c3cccc(C(F)(F)F)c3)nc12 [Compound 112]
  EC1.5: C (EC1.5>25 uM)
  Emax: < 200%

## O=C(Nc1cccnn1)c1nccn2cc(-c3ccccc3C(F)(F)F)nc12 [Compound 174]
  EC1.5: B (EC1.5 1-25 uM)
  Emax: > 200%

## O=C(Nc1cccc(CN2CCOCC2)n1)c1cccn2cc(-c3cccc(C(F)F)c3)nc12 [Compound 209]
  EC1.5: A (EC1.5<1.0 uM)
  Emax: > 200%

## O=C(Nc1ccncn1)c1nccn2cc(-c3ccccc3C(F)(F)F)nc12 [Compound 175]
  EC1.5: B (EC1.5 1-25 uM)
  Emax: > 200%

## Cc1cc(-c2nc3c(C(=O)Nc4nc(CN5CCOCC5)cs4)cccn3n2)ccn1 [Compound 216]
  EC1.5: B (EC1.5 1-25 uM)
  Emax: > 200%

## O=C(Nc1ccccn1)c1nccn2cc(-c3ccc(F)cc3C(F)(F)F)nc12 [Compound 189]
  EC1.5: B (EC1.5 1-25 uM)
  Emax: > 200%

## O=C(Nc1nc(CN2CCOCC2)cs1)c1cccn2cc(-c3cc(F)cc(F)c3)nc12 [Compound 192]
  EC1.5: A (EC1.5<1.0 uM)
  Emax: > 200%

## O=C(Nc1ccccn1)c1cccn2cc(-c3ccccc3F)nc12 [Compound 153]
  EC1.5: C (EC1.5>25 uM)
  Emax: < 200%

## O=C(Nc1cccc(CN2CCOCC2)n1)c1cccn2cc(-c3cccc(OC(F)(F)F)c3)nc12 [Compound 161]
  EC1.5: A (EC1.5<1.0 uM)
  Emax: > 200%

## O=C(Nc1cnccn1)c1nccn2cc(-c3ccccc3OC(F)(F)F)nc12 [Compound 245]
  EC1.5: A (EC1.5<1.0 uM)
  Emax: > 200%

## O=C(Nc1nccs1)c1cccn2nc(-c3cc(Cl)ccc3C(F)(F)F)nc12 [Compound 223]
  EC1.5: B (EC1.5 1-25 uM)
  Emax: < 200%

## O=C(Nc1ccc(CCN2CCOCC2)cc1)c1cccn2cc(-c3ccc(F)cc3C(F)(F)F)nc12 [Compound 170]
  EC1.5: A (EC1.5<1.0 uM)
  Emax: > 200%

## O=C(Nc1nc(CN2CCOCC2)cs1)c1cccn2cc(-c3ccc(F)cc3C(F)(F)F)nc12 [Compound 237]
  EC1.5: A (EC1.5<1.0 uM)
  Emax: > 200%

## O=C(Nc1ccc(CCN2CCCC2)cc1)c1cccn2cc(-c3ccc(F)cc3C(F)(F)F)nc12 [Compound 218]
  EC1.5: C (EC1.5>25 uM)
  Emax: < 200%
